Read-outs that look alike come from different tables or passages of the source.
Biological target: JAK3 enzyme (Homo sapiens (Human), UniProt P52333)
Test: JAK Caliper Enzyme Assay at 4 μM or 1 mM ATP
Type: biochemical
[1] = read-out: JAK3 (4 μM ATP) IC50, 4 μM ATP
[2] = read-out: JAK3 (1 mM ATP) IC50, 1 mM ATP

Sequence of JAK3 enzyme (P52333 whole entry, species assumed): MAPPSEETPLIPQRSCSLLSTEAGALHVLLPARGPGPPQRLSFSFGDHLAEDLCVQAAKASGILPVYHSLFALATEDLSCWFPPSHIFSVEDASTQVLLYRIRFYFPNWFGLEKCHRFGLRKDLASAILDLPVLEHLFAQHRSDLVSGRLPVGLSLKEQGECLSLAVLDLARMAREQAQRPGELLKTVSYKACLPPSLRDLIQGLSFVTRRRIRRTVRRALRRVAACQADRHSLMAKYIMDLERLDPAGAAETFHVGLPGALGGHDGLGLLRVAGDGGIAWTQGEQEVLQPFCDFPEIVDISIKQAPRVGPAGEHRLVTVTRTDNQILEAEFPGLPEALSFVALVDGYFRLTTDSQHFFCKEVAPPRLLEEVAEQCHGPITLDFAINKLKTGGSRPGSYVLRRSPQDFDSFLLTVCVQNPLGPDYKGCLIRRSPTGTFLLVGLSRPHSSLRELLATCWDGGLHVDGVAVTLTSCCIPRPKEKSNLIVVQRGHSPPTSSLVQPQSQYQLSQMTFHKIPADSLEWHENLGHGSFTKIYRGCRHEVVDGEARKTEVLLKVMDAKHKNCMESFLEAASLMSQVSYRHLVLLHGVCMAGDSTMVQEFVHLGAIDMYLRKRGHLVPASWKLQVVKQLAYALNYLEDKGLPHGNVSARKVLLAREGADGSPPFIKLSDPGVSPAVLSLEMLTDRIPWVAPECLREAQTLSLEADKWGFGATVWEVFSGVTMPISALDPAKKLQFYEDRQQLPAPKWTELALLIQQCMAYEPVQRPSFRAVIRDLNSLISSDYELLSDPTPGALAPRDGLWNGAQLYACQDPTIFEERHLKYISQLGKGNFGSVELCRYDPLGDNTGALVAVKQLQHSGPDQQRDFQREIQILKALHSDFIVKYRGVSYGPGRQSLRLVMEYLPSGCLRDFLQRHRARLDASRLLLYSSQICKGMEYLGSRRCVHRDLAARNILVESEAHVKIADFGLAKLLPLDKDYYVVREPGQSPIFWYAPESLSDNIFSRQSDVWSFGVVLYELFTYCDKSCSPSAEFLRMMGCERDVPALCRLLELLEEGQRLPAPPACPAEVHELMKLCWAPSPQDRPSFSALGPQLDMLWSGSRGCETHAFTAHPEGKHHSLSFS

IC50 [1] [nM]	IC50 [2] [nM]	SMILES
8.1	692	C=CC(=O)NC1CN(c2cnc3[nH]cc(C(=O)NC(C)C)c3n2)C1 [Example 173, 2-[3-(acryloylamino)azetidin-1-yl]-N-(propan-2-yl)-5H-pyrrolo[2,3-b]pyrazine-7-carboxamide]
0.4	34.8	C=CC(=O)N1CCN(c2cnc3[nH]cc(C(=O)NC(C)C)c3n2)CC1 [Example 174, 2-(4-acryloylpiperazin-1-yl)-N-(propan-2-yl)-5H-pyrrolo[2,3-b]pyrazine-7-carboxamide]
1610		C=CC(=O)N1CC2(C1)CN(c1cnc3[nH]ccc3n1)C2 [Example 175, 1-[6-(5H-pyrrolo[2,3-b]pyrazin-2-yl)-2,6-diazaspiro[3.3]hept-2-yl]prop-2-en-1-one]
7.2	910	C=CC(=O)N1CCC(Nc2cnc3[nH]ccc3n2)CC1 [Example 176, 1-[4-(5H-pyrrolo[2,3-b]pyrazin-2-ylamino)piperidin-1-yl]prop-2-en-1-one]
11.4	975	C=CC(=O)N[C@H]1CC[C@@H](Nc2cnc3[nH]cc(C(=O)NC(C)C)c3n2)CC1 [Example 182, 2-{[cis-4-(acryloylamino)cyclohexyl]amino}-N-(propan-2-yl)-5H-pyrrolo[2,3-b]pyrazine-7-carboxamide]
9.6	794	C=CC(=O)NC[C@@]12C[C@@H]1CN(c1cnc3[nH]cc(C(=O)NC(C)C)c3n1)C2 [Example 183, 2-{(1R,5S)-1-[(acryloylamino)methyl]-3-azabicyclo[3.1.0]hex-3-yl}-N-(propan-2-yl)-5H-pyrrolo[2,3-b]pyrazine-7-carboxamide]
20.4	1460	C=CC(=O)N1CCCN(c2cnc3[nH]cc(C(=O)NC(C)C)c3n2)CC1 [Example 185, 2-(4-acryloyl-1,4-diazepan-1-yl)-N-(propan-2-yl)-5H-pyrrolo[2,3-b]pyrazine-7-carboxamide]
0.6	27.2	C=CC(=O)N(C)C1CN(c2cnc3[nH]cc(C(=O)NC(C)C)c3n2)C1 [Example 187, 2-{3-[acryloyl(methyl)amino]azetidin-1-yl}-N-(propan-2-yl)-5H-pyrrolo[2,3-b]pyrazine-7-carboxamide]
0.3	8.8	C=CC(=O)N1CC(Nc2cnc3[nH]cc(C(=O)NC(C)C)c3n2)C1 [Example 188, 2-[(1-acryloylazetidin-3-yl)amino]-N-(propan-2-yl)-5H-pyrrolo[2,3-b]pyrazine-7-carboxamide]
1.5	138	C=CC(=O)N1CC[C@@H](CNc2cnc3[nH]cc(C(=O)NC(C)C)c3n2)C1 [Example 191, 2-({[(3S)-1-acryloylpyrrolidin-3-yl]methyl}amino)-N-(propan-2-yl)-5H-pyrrolo[2,3-b]pyrazine-7-carboxamide]
272		C=CC(=O)NC1CN(c2cnc3[nH]ccc3n2)C1 [Example 192, N-[1-(5H-pyrrolo[2,3-b]pyrazin-2-yl)azetidin-3-yl]prop-2-enamide]
29	2290	C=CC(=O)N1CCC(CNc2cnc3[nH]cc(C(=O)NC(C)C)c3n2)CC1 [Example 193, 2-{[(1-acryloylpiperidin-4-yl)methyl]amino}-N-(propan-2-yl)-5H-pyrrolo[2,3-b]pyrazine-7-carboxamide]
0.3	30.6	C=CC(=O)N1CC[C@@H](Nc2cnc3[nH]cc(C(=O)NC(C)C)c3n2)[C@H](O)C1 [Example 196, 2-{[(3R,4R)-1-acryloyl-3-hydroxypiperidin-4-yl]amino}-N-(propan-2-yl)-5H-pyrrolo[2,3-b]pyrazine-7-carboxamide]
3490		C=CC(=O)NC[C@@]12C[C@@H]1CN(c1cnc3[nH]ccc3n1)C2 [Example 197, N-{[(1R,5S)-3-(5H-pyrrolo[2,3-b]pyrazin-2-yl)-3-azabicyclo[3.1.0]hex-1-yl]methyl}prop-2-enamide]
1	77.6	C=CC(=O)N[C@H]1C[C@H](Nc2cnc3[nH]cc(C(=O)NC(C)C)c3n2)C1 [Example 198, 2-{[trans-3-(acryloylamino)cyclobutyl]amino}-N-(propan-2-yl)-5H-pyrrolo[2,3-b]pyrazine-7-carboxamide]
0.8	88.9	C=CC(=O)N1CCC(Nc2cnc3[nH]cc(-c4ccncc4F)c3n2)CC1 [Example 200, 1-(4-{[7-(3-fluoropyridin-4-yl)-5H-pyrrolo[2,3-b]pyrazin-2-yl]amino}piperidin-1-yl)prop-2-en-1-one]
0.5	28	C=CC(=O)N1CCC(Nc2cnc3[nH]cc(-c4ccnc(C)c4)c3n2)CC1 [Example 201, 1-(4-{[7-(2-methylpyridin-4-yl)-5H-pyrrolo[2,3-b]pyrazin-2-yl]amino}piperidin-1-yl)prop-2-en-1-one]
0.9	99.1	C=CC(=O)N1CCC(Nc2cnc3[nH]cc(-c4cncnc4)c3n2)CC1 [Example 202, 1-(4-{[7-(pyrimidin-5-yl)-5H-pyrrolo[2,3-b]pyrazin-2-yl]amino}piperidin-1-yl)prop-2-en-1-one]
2	148	C=CC(=O)N1CCC(Nc2cnc3[nH]cc(-c4ccc(S(C)(=O)=O)cc4)c3n2)CC1 [Example 203, 1-[4-({7-[4-(methylsulfonyl)phenyl]-5H-pyrrolo[2,3-b]pyrazin-2-yl}amino)piperidin-1-yl]prop-2-en-1-one]
0.5	49.3	C=CC(=O)N1CCC(Nc2cnc3[nH]cc(-c4cccc(C(=O)NC)c4)c3n2)CC1 [Example 204, 3-{2-[(1-acryloylpiperidin-4-yl)amino]-5H-pyrrolo[2,3-b]pyrazin-7-yl}-N-methylbenzamide]
0.5	14.8	C=CC(=O)N1CCC(Nc2cnc3[nH]cc(-c4cccnc4)c3n2)CC1 [Example 205, 1-(4-{[7-(pyridin-3-yl)-5H-pyrrolo[2,3-b]pyrazin-2-yl]amino}piperidin-1-yl)prop-2-en-1-one]
0.3	28.9	C=CC(=O)N1CCC(Nc2cnc3[nH]cc(-c4ccc(F)nc4)c3n2)CC1 [Example 207, 1-(4-{[7-(6-fluoropyridin-3-yl)-5H-pyrrolo[2,3-b]pyrazin-2-yl]amino}piperidin-1-yl)prop-2-en-1-one]
5.9	576	C=CC(=O)N1CCC(Nc2cnc3[nH]cc(-c4cnc(N5CCOCC5)nc4)c3n2)CC1 [Example 208, 1-[4-({7-[2-(morpholin-4-yl)pyrimidin-5-yl]-5H-pyrrolo[2,3-b]pyrazin-2-yl}amino)piperidin-1-yl]prop-2-en-1-one]
0.2	14.3	C=CC(=O)N1CCC(Nc2cnc3[nH]cc(-c4ccccc4)c3n2)CC1 [Example 209, 1-{4-[(7-phenyl-5H-pyrrolo[2,3-b]pyrazin-2-yl)amino]piperidin-1-yl}prop-2-en-1-one]
0.4	45.4	C=CC(=O)N1CCC(Nc2cnc3[nH]cc(-c4cnc(OC)nc4)c3n2)CC1 [Example 210, 1-(4-{[7-(2-methoxypyrimidin-5-yl)-5H-pyrrolo[2,3-b]pyrazin-2-yl]amino}piperidin-1-yl)prop-2-en-1-one]

Reference: US20250134869A1, “Pyrrolo[2,3-d]pyrimidinyl, Pyrrolo[2,3-b]pyrazinyl and Pyrrolo[2,3-d]pyridinyl Acryla-mides” (Pfizer Inc, priority 2021, published 2025)
